Columns and labels:
Format in all cases: physicochemical
[1] = Wet high-pressure grinding of crystals (Microfluidizer): particle size distribution of ground crystals; conditions: wet high-pressure grinding in water, 100 MPa, laser diffraction (wet measurement)
Procedure: Crystals were charged into Microfluidizer Model M110Y (mfd. by Mizuho Industrial Co., Ltd.) together with water and subjected to high-pressure grinding. […] In this case, the α type crystals were solidified during the grinding. […] The particle size distribution was measured by dispersing the ground crystals in water in an agate mortar. A laser diffraction particle size distribution meter (wet measurement) was used for measuring the particle size distribution.

[2] = Dry pneumatic grinding of crystals 1 (A-O Jet Mill): amount adhering to inside of apparatus; conditions: 7 g crystals charged, pneumatic grinding at 0.49 MPa
Description: Crystals were charged into an A-O Jet Mill (mfd. by Seishin Enterprise Co., Ltd.) and subjected to pneumatic grinding at a forcing pressure of 0.49 MPa and a grinding pressure of 0.49 MPa.

[3] = Crystal type stability on grinding / in aqueous suspension; conditions: for change of crystal type during grinding: α: wet grinding under high-pressure conditions, suspended in water, β: pneumatic and wet grinding
Description: When the α type crystals were subjected to pneumatic grinding, they adhered remarkably to the inside of a grinding apparatus. Therefore, their pulverization to a desirable size by one run of grinding operation was difficult, so that it was necessary to grind them repeatedly several times. Since it often became necessary to remove the crystals adhering to the inside, the grinding efficiency and the yield were low.
When the β type crystals were subjected to pneumatic grinding, they hardly adhered to the inside of a grinding apparatus, were easy to handle in a process of their formulation into a pharmaceutical preparation, and could be continuously ground. The β type crystals could easily be ground also by a wet grinding method and made it possible to produce finer powder that could be formulated into a pharmaceutical preparation.
The β type crystals of the present invention may be obtained also by stirring phosphate or a type crystals of the isoxazole derivative of the formula 1 in a suspended state in water for a definite time. In the case of the phosphate, the β type crystals could be obtained, for example, by stirring the phosphate at 50° C. for about 5 hours. […] So long as seed crystals for the β type crystals are used, it is also possible to produce the β type crystals by using any of hydrophobic organic solvents such as aromatic hydrocarbons (e.g. toluene and benzene), ethers (e.g. t-butyl methyl ether, diisopropyl ether and diethyl ether), aliphatic hydrocarbons (e.g. cyclohexane, hexane and heptane), halogen-containing solvents (e.g. chloroform, methylene chloride and 1,2-dichloroethane) and esters (e.g. ethyl acetate). For example, the isoxazole derivative of the formula 1 may be crystallized by dissolving the derivative in a mixed solvent of toluene and 2-propanol and adding hexane thereto.

[4] = Dry pneumatic grinding of crystals 2 (Jet O Mill): particle size distribution of ground crystals; conditions: one run of dry pneumatic grinding, 0.44-0.49 MPa, laser diffraction (dry measurement)
Description: Crystals were charged into a Jet 0 Mill Model JOMO101 (mfd. by Seishin Enterprise Co., Ltd.) and subjected to pneumatic grinding at a forcing pressure and a grinding pressure (which had been set at the same pressure) of 0.44 MPa to 0.49 MPa. […] A laser diffraction particle size distribution meter (dry measurement) was used for measuring the particle size distribution. It has already been confirmed that repeated grinding or the increase of the grinding pressure is necessary for further particle size reduction.

Undersize particle D50% particle size ([1]; D50%) [μm]	Undersize particle D50% particle size ([1]; first D50% line) [μm]	Adhering amount [2] [g]	change of crystal type during grinding [3]	Undersize particle D50% particle size ([4]; D50%) [μm]	Undersize particle D50% particle size ([4]; first D50% line) [μm]	SMILES	thermodynamic stability of crystal type ([3]; stirring phosphate or α type crystals suspended in water gives β type crystals)
58.1	26.1	2.06	changed to the β type crystals	79.3	27.6	C[C@@H](c1ccc(-c2ccccc2)c(F)c1)c1cc(/N=C(/N)N2CCOCC2)on1 [α type crystals, 3-[(1S)-1-(2-fluorobiphenyl-4-yl)ethyl]-5-{[amino(morpholin-4-yl)methylene]amino}isoxazole]	–
3.2	1.7	0.00	did not change the crystal type	10.2	4.7	C[C@@H](c1ccc(-c2ccccc2)c(F)c1)c1cc(/N=C(/N)N2CCOCC2)on1 [β type crystals, 3-[(1S)-1-(2-fluorobiphenyl-4-yl)ethyl]-5-{[amino(morpholin-4-yl)methylene]amino}isoxazole]	thermodynamically more stable than the α type crystals

From patent publication US20080311212A1, “CRYSTALLINE ISOXAZOLE DERIVATIVE AND PHARMACEUTICAL PREPARATION THEREOF” (Dainippon Sumitomo Pharma Co., Ltd., priority 2001, published 2008)
